Laboratory results taken from PubChem BioAssay AID2060605 (Molecular Pharmacology Branch, DTP, NCI, 2025).

Test system: 947758-054-R-J2-PDC spheroid growth, percent test/control
Experiment: Anticancer human tumor 947758-054-R-J2-PDC patient-derived colon adenocarcinoma cell line growth inhibition [CLK]
Details: spheroids with HUVEC and MSC; for IC50: curve of first compound; for viability, T/C: stronger effect = lower value
Outline: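 Multi-cell-type spheroids combined patient-derived tumor cells with HUVEC endothelial cells and human mesenchymal stem cells. Paired agents were dosed in half-log steps down from about clinical Cmax, or from 10 microM where Cmax was unknown.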
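Further: spheroids exposed to compounds for one week before readout.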
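Wherever viability, T/C is given: 100% = DMSO vehicle control wells.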

With C=CC(=O)Nc1cc(Nc2nccc(-c3cn(C)c4ccccc34)n2)c(OC)cc1N(C)CCN(C)C + CNC(=O)c1ccc(Nc2nc(OC3CCCC3)c3c(-c4ccc5nc(C)oc5c4)c[nH]c3n2)c(OC)c1 the IC50 (second compound 0.0316 µM) was over 300 nM, the IC50 (second compound 0.1 µM) was over 300 nM and the IC50 (second compound 0.316 µM) was 251 nM. For the same molecule, the IC50 (second compound 1 µM) was 122 nM, the IC50 (second compound 3.16 µM) was under 0.949 nM and the IC50 (second compound 10 µM) was under 0.949 nM. The viability, T/C (second compound 0.0316 µM, first compound 0.000949 µM) was 90%, the viability, T/C (second compound 0.0316 µM, first compound 0.003 µM) was 78.9% and the viability, T/C (second compound 0.0316 µM, first compound 0.00949 µM) was 80.4%. It also gave a viability, T/C (second compound 0.0316 µM, first compound 0.03 µM) of 94.6%, a viability, T/C (second compound 0.0316 µM, first compound 0.0949 µM) of 86.2% and a viability, T/C (second compound 0.0316 µM, first compound 0.3 µM) of 64%. It also gave a viability, T/C (second compound 0.1 µM, first compound 0.000949 µM) of 102%, a viability, T/C (second compound 0.1 µM, first compound 0.003 µM) of 94.9% and a viability, T/C (second compound 0.1 µM, first compound 0.00949 µM) of 83.7%. The viability, T/C (second compound 0.1 µM, first compound 0.03 µM) was 87.9%, the viability, T/C (second compound 0.1 µM, first compound 0.0949 µM) was 78.1% and the viability, T/C (second compound 0.1 µM, first compound 0.3 µM) was 52.5%. For the same molecule, the viability, T/C (second compound 0.316 µM, first compound 0.000949 µM) was 88.2%, the viability, T/C (second compound 0.316 µM, first compound 0.003 µM) was 81.8% and the viability, T/C (second compound 0.316 µM, first compound 0.00949 µM) was 65.8%. It also gave a viability, T/C (second compound 0.316 µM, first compound 0.03 µM) of 96.3%, a viability, T/C (second compound 0.316 µM, first compound 0.0949 µM) of 108% and a viability, T/C (second compound 0.316 µM, first compound 0.3 µM) of 43.1%. It also gave a viability, T/C (second compound 1 µM, first compound 0.000949 µM) of 70.2%, a viability, T/C (second compound 1 µM, first compound 0.003 µM) of 53.1% and a viability, T/C (second compound 1 µM, first compound 0.00949 µM) of 47.1%. It also gave a viability, T/C (second compound 1 µM, first compound 0.03 µM) of 52%, a viability, T/C (second compound 1 µM, first compound 0.0949 µM) of 62.8% and a viability, T/C (second compound 1 µM, first compound 0.3 µM) of 25.4%. It also gave a viability, T/C (second compound 3.16 µM, first compound 0.000949 µM) of 48.9%, a viability, T/C (second compound 3.16 µM, first compound 0.003 µM) of 44.4% and a viability, T/C (second compound 3.16 µM, first compound 0.00949 µM) of 44.8%. For the same molecule, the viability, T/C (second compound 3.16 µM, first compound 0.03 µM) was 44%, the viability, T/C (second compound 3.16 µM, first compound 0.0949 µM) was 39.5% and the viability, T/C (second compound 3.16 µM, first compound 0.3 µM) was 23.1%. The viability, T/C (second compound 10 µM, first compound 0.000949 µM) was 39.8%, the viability, T/C (second compound 10 µM, first compound 0.003 µM) was 39.5% and the viability, T/C (second compound 10 µM, first compound 0.00949 µM) was 42.7%. For the same molecule, the viability, T/C (second compound 10 µM, first compound 0.03 µM) was 35.2%, the viability, T/C (second compound 10 µM, first compound 0.0949 µM) was 20.9% and the viability, T/C (second compound 10 µM, first compound 0.3 µM) was 18.3%.
In the case of CCN1CCN(Cc2ccc(Nc3ncc(F)c(-c4cc(F)c5nc(C)n(C(C)C)c5c4)n3)nc2)CC1 + CNC(=O)c1ccc(Nc2nc(OC3CCCC3)c3c(-c4ccc5nc(C)oc5c4)c[nH]c3n2)c(OC)c1, the IC50 (second compound 0.0316 µM) is reported as 792 nM, the IC50 (second compound 0.1 µM) is reported as 263 nM and the IC50 (second compound 0.316 µM) is reported as 46 nM. For the same molecule, the IC50 (second compound 1 µM) was 6.65 nM, the IC50 (second compound 3.16 µM) was under 3.16 nM and the IC50 (second compound 10 µM) was under 3.16 nM. For the same molecule, the viability, T/C (second compound 0.0316 µM, first compound 0.00316 µM) was 96.1%, the viability, T/C (second compound 0.0316 µM, first compound 0.01 µM) was 94.5% and the viability, T/C (second compound 0.0316 µM, first compound 0.0316 µM) was 90.7%. It also gave a viability, T/C (second compound 0.0316 µM, first compound 0.1 µM) of 73%, a viability, T/C (second compound 0.0316 µM, first compound 0.316 µM) of 61.5% and a viability, T/C (second compound 0.0316 µM, first compound 1 µM) of 46.9%. It also gave a viability, T/C (second compound 0.1 µM, first compound 0.00316 µM) of 102%, a viability, T/C (second compound 0.1 µM, first compound 0.01 µM) of 73.2% and a viability, T/C (second compound 0.1 µM, first compound 0.0316 µM) of 61.4%. The viability, T/C (second compound 0.1 µM, first compound 0.1 µM) was 65.8%, the viability, T/C (second compound 0.1 µM, first compound 0.316 µM) was 57.4% and the viability, T/C (second compound 0.1 µM, first compound 1 µM) was 32.8%. The viability, T/C (second compound 0.316 µM, first compound 0.00316 µM) was 101%, the viability, T/C (second compound 0.316 µM, first compound 0.01 µM) was 71.3% and the viability, T/C (second compound 0.316 µM, first compound 0.0316 µM) was 39.5%. It also gave a viability, T/C (second compound 0.316 µM, first compound 0.1 µM) of 60.1%, a viability, T/C (second compound 0.316 µM, first compound 0.316 µM) of 38.9% and a viability, T/C (second compound 0.316 µM, first compound 1 µM) of 22.3%. It also gave a viability, T/C (second compound 1 µM, first compound 0.00316 µM) of 59.2%, a viability, T/C (second compound 1 µM, first compound 0.01 µM) of 46.8% and a viability, T/C (second compound 1 µM, first compound 0.0316 µM) of 31.9%. For the same molecule, the viability, T/C (second compound 1 µM, first compound 0.1 µM) was 31%, the viability, T/C (second compound 1 µM, first compound 0.316 µM) was 42.4% and the viability, T/C (second compound 1 µM, first compound 1 µM) was 19.8%. The viability, T/C (second compound 3.16 µM, first compound 0.00316 µM) was 52.2%, the viability, T/C (second compound 3.16 µM, first compound 0.01 µM) was 32.5% and the viability, T/C (second compound 3.16 µM, first compound 0.0316 µM) was 39.8%. The viability, T/C (second compound 3.16 µM, first compound 0.1 µM) was 34%, the viability, T/C (second compound 3.16 µM, first compound 0.316 µM) was 33.7% and the viability, T/C (second compound 3.16 µM, first compound 1 µM) was 25.1%. For the same molecule, the viability, T/C (second compound 10 µM, first compound 0.00316 µM) was 40%, the viability, T/C (second compound 10 µM, first compound 0.01 µM) was 41.2% and the viability, T/C (second compound 10 µM, first compound 0.0316 µM) was 35.6%. For the same molecule, the viability, T/C (second compound 10 µM, first compound 0.1 µM) was 31.6%, the viability, T/C (second compound 10 µM, first compound 0.316 µM) was 21.1% and the viability, T/C (second compound 10 µM, first compound 1 µM) was 21.1%.
